Several values for one entry are separate records, joined by “and”; a condition that tells them apart may be missing. Equal entries are not always repeated. Where two headings read alike, the source gives them in different places.
Key:
GalN/endotoxin hepatitis [1] = settings: *p ≤ 0.01, **p ≤ 0.001; indomethacin 9 mg/kg; diethylcarbamazine 78 mg/kg i.p. every 45 minutes between 0 and 6 hours; dexamethasone 200 μg/kg i.p.; cited from earlier work
cutaneous necrosis = assay: skin flap test (action promoting healing); type: in vivo, Wistar rats; settings: for Area of surviving skin in mm^2 / Area of the necrotic skin in mm^2 / Area of the skin flap / Area of surviving skin in % / Area of the necrotic skin in %: 1.5 ml i.p. daily for 8 days; for Area of surviving skin in mm^2 / Area of the necrotic skin in mm^2 / Area of the skin flap: 5% concentration; for Area of surviving skin in % / Area of the necrotic skin in %: % of skin flap; for Action of the compound in %: increase in area of surviving skin as percentage compared with control
From the text: Various pharmacological tests can be used to test for any therapeutically beneficial effect on damaged cells and tissues. An action promoting healing can be estimated and measured, in particular, by using the so-called skin flap test; the test is based on the development of a cutaneous necrosis and the inhibition thereof as a consequence of the action of the test substance.
Male Wistar rats of body weight 220-240 g in groups of 8 animals for each value which is to be determined are anesthetized with Nembutal (50 mg/kg, i.p.). A 1×3 cm skin flap is cut out, using a scalpel, from the back, is thoroughly washed and is returned to the original site and is sutured. The test animals are given the compound which is to be tested, in 5% concentration in aqueous solution (containing 0.2% ethanol and 1% polyethylene glycol of molecular weight 20,000--or Carbowax ®20; in each case 1.5 ml intraperitoneal), each day for 8 days; the control animals receive only the aqueous medium. Each day drawings are made of the skin flaps on the scale 1:1, with the necrotic sites being colored black. The animals are sacrificed after 8 days, and the drawings are evaluated using a Biotran apparatus, and the total area of the necrotic sites is measured in mm^2. The action promoting healing is expressed as the increase in the area of surviving skin as a percentage compared with the control.

GalN/endotoxin hepatitis [2] = assay: GalN/endotoxin hepatitis, cytoprotective effect of the compounds; type: in vivo, albino mice of the NMRI strain; settings: 200 μg/kg i.p. 1 hour before GalN/endotoxin; serum 9 hours later; n.s. not significant, *p ≤ 0.05, **p ≤ 0.01
From the text: In order to gain a deeper insight into the pharmacological properties of the compounds of the formula I, they have been examined for any cytoprotective effects they may have. The cytoprotective effect can be shown, inter alia, by the method described by A. Wendel and G. Tiegs in Biochemical Pharmacology 35 (1986), 2115-2118. This is based on the impairment of liver function as a consequence of sensitization of the liver due to administration of D-galactosamine and simultaneous treatment with endotoxins.
D-galactosamine (abbreviated to GalN) causes in animals liver damage which is regarded as a model for human viral hepatitis. The mechanism is assumed to be an accumulation of toxic galactosamine derivatives in the liver, which results in a diminution in the biosynthesis of macromolecules such as ribonucleic acids, proteins, glycoproteins and glycogens. These changes in the metabolism may in turn result in cell damage or even death of cells in the liver. The extent of liver damage can be determined by the increase in certain liver enzymes (sorbitol dehydrogenase SDH, serum glutamic-oxalic transaminase SGOT, serum glutamic-pyruvic transaminase SGPT) in the blood and by histology of the liver.
The test is carried out as follows.
Male albino mice of the NMRI strain are pretreated intraperitoneally with 200 μg/kg test substance and, 1 hour thereafter, treated intraperitoneally with 700 mg/kg D-galactosamine and 33 μg/kg endotoxins. 9 hours later, blood is removed by cardiac puncture, and the enzymatic activity in the blood serum is determined according to H. U. Bergmeyer [Methods in Enzymatic Analysis, 3rd edition (1985), volume III]. In this experimental model, the […] (Kupffer cells) actually function as immobilized macrophages.
The content of the liver enzymes SDH, SGOT and SGPT in the serum is expressed in international units (IU) for the enzyme activity; 1 IU=1 μmol of substrate converted/minute in one liter.

acute toxicity testing = type: in vivo; design: Weight on May 10, 1988 / Weight on May 20, 1988: unit not given here
Description: Two groups each of ten mice were observed and weighed each day for 10 days. The animals in the control group each received intraperitoneal administration of 500 μl of a 5 mmol/l solution of Pluronic ® F 68 (manufactured by BASF Wyandotte, Erbsloh/FRG) in physiological saline, while those in the test group received 500 μl of a solution of 6 mg of the compound named above in 6 ml of Pluronic® F 68.

Structure (SMILES) | SGOT (GalN/endotoxin hepatitis [1]) | SGPT (GalN/endotoxin hepatitis [1]) | Area of surviving skin in mm^2 (cutaneous necrosis) [mm^2] | Area of the necrotic skin in mm^2 (cutaneous necrosis) [mm^2] | Area of the skin flap (cutaneous necrosis) [mm^2] | Area of surviving skin in % (cutaneous necrosis) [%] | Area of the necrotic skin in % (cutaneous necrosis) [%] | Action of the compound in % (cutaneous necrosis) | SDH (GalN/endotoxin hepatitis [2]) [IU/liter] | SGOT (GalN/endotoxin hepatitis [2]) [IU/liter] | SGPT (GalN/endotoxin hepatitis [2]) [IU/liter] | special reactions immediately after the injection (acute toxicity testing; about 20 mg/kg i.p.) | toxic signs (acute toxicity testing; about 20 mg/kg i.p., during the experiment and days which followed) | weight gain versus control group (acute toxicity testing; about 20 mg/kg i.p., test versus control group) | mortality (acute toxicity testing; mouse, in vivo) | Weight on May 20, 1988 (acute toxicity testing; test group, individual animals, 10 days, about 20 mg/kg i.p.) | Weight difference (acute toxicity testing; test group, individual animals, May 10 to May 20, about 20 mg/kg i.p.) | Weight on May 10, 1988 (acute toxicity testing; test group, individual animals, before/at i.p. dosing (about 20 mg/kg))
C[C@@H]1C[C@H]2[C@@H]3CCC4=CC(=O)C=C[C@]4(C)[C@@]3(F)[C@@H](O)C[C@]2(C)[C@@]1(O)C(=O)CO [Dexamethasone] | 140 ± 100 | 100 ± 60 |  |  |  |  |  |  |  |  |  |  |  |  |  |  |  | 
CCN(CC)C(=O)N1CCN(C)CC1 [Diethylcarbamazine] | 270 ± 90 | 290 ± 180 |  |  |  |  |  |  |  |  |  |  |  |  |  |  |  | 
CCCCCCCCCCCCCC=CC(O)C(COC1OC(CO)C(O)C(O)C1O)NC(=O)CCCCCCCCCCCCCCC [Gal(Pal)-D-Sph] |  |  | 191.8 ± 18.9 | 81.4 ± 18.5 | 273.3 ± 5.2 | 70.2 | 29.8 | +31.2% | 2400 ± 2800 | 1030 ± 1150 | 2990 ± 3510 |  |  |  |  |  |  | 
CC/C=C\C/C=C\C/C=C\CCCCCCCC(=O)N[C@@H](CO[C@@H]1O[C@H](CO)[C@@H](O)[C@H](O)[C@H]1O)[C@H](O)/C=C/CCCCCCCCCCCCC [Glu(Linolen)-D-Sph] |  |  | 107.4 ± 27.3 | 184.1 ± 28.9 | 291.5 ± 5.5 | 37.2 | 62.8 | +144.7% | 2280 ± 355 | 940 ± 170 | 3350 ± 630 |  |  |  |  |  |  | 
CCCCCCCCCCCCC/C=C/[C@@H](O)[C@H](CO[C@@H]1O[C@H](CO)[C@@H](O)[C@H](O)[C@H]1O)NC(=O)CCCCCCCCCCCCCCC [Glu(Pal)-D-Sph] |  |  | 144.1 ± 9.1 | 113.3 ± 10.6 | 257.4 ± 6.2 | 56.2 | 43.8 | +30.1% | 4720 ± 2320 | 910 ± 425 | 3950 ± 2260 |  |  |  |  |  |  | 
CCCCCCCCCCCCCC=CC(O)C(COC1OC(CO)C(O)C(O)C1O)NC(=O)CCCCCCCCCCCCCCC [Glu(Pal)-L-Sph] |  |  | 178.6 ± 16.8 | 85.8 ± 14.7 | 264.4 ± 2.6 | 67.3 | 32.7 | +55.8% | 1690 ± 1680 | 410 ± 360 | 1470 ± 1460 |  |  |  |  |  |  | 
COc1ccc2c(c1)c(CC(=O)O)c(C)n2C(=O)c1ccc(Cl)cc1 [Indomethacin] | 480 ± 475 | 730 ± 1,040 |  |  |  |  |  |  |  |  |  |  |  |  |  |  |  | 
CCCCC/C=C\C/C=C\C/C=C\C/C=C\CCCC(=O)N[C@@H](CO[C@@H]1O[C@H](CO)[C@@H](O[C@@H]2O[C@H](CO)[C@H](O)[C@H](O)[C@H]2O)[C@H](O)[C@H]1O)[C@H](O)/C=C/CCCCCCCCCCCCC [Lac(Arach)-D-Sph] |  |  | 211.6 ± 33.3 | 111.5 ± 25.8 | 323.1 ± 10.4 | 64.1 | 35.8 | +36.8% | 355 ± 425 | 280 ± 260 | 290 ± 210 |  |  |  |  |  |  | 
CC/C=C\C/C=C\C/C=C\CCCCCCCC(=O)N[C@@H](CO[C@@H]1O[C@H](CO)[C@@H](O[C@@H]2O[C@H](CO)[C@H](O)[C@H](O)[C@H]2O)[C@H](O)[C@H]1O)[C@H](O)/C=C/CCCCCCCCCCCCC [Lac(Linolen)-D-Sph, (2S,3R,4E)-1-[4-0-(β-D-Galactopyranosyl)-β-D-glucopyranosyloxy-oxy]-2-[(9Z,12Z,15Z)-9,12,15-octadecatrienoylamino]-4-octadecen-3-ol] |  |  | 195.9 ± 35.5 | 128.1 ± 34.2 | 324.0 ± 10.0 | 60.4 | 39.6 | +22.0% | 290 ± 250 | 124 ± 55 | 230 ± 76 |  |  |  |  |  |  | 
CCCCCCCCCCCCC/C=C/[C@@H](O)[C@H](CO[C@@H]1O[C@H](CO)[C@@H](O[C@@H]2O[C@H](CO)[C@H](O)[C@H](O)[C@H]2O)[C@H](O)[C@H]1O)NC(=O)CCCCCCCCCCCCCCC [Lac(Pal)-D-Sph, (2S,3R,4E)-1-[4-0-(8-D-galactopyranosyl) -β-D-glucopyranosyloxy]-2-hexadecanoylamino-4-octadecen-3-ol] |  |  | 197.6 ± 12.6 | 113.2 ± 13.0 | 310.9 ± 6.9 | 63.8 | 36.2 | +47.3% | 80 ± 30 | 80 ± 20 | 110 ± 70 |  |  |  |  |  |  | 
CCCCCCCCCCCCC/C=C/[C@H](O)[C@@H](CO[C@@H]1O[C@H](CO)[C@@H](O[C@@H]2O[C@H](CO)[C@H](O)[C@H](O)[C@H]2O)[C@H](O)[C@H]1O)NC(=O)CCCCCCCCCCCCCCC [Lac(Pal)-L-Sph, (2R,3S,4E)-1-[4-0-(8-D-galactopyranosyl) -β-D-gluco-pyranosyloxy]-2-hexadecanoylamino-4-octadecen-3-ol] |  |  | 182.8 ± 11.3 | 112.7 ± 13.3 | 295.5 ± 6.4 | 62.3 | 37.7 | +43.9% | 80 | 120 ± 80 | 80 ± 20 | nor were any special reactions immediately after the injection | no toxic signs | strictly comparable in respect of weight gain | No mortality | 35.7 and 33.0 and 35.0 and 34.9 and 34.4 and 39.9 and 28.8 and 34.0 and 30.5 and 31.9 | +6.6 g and +6.0 g and +7.3 g and +7.0 g and +7.7 g and +9.7 g and +4.3 g and +6.4 g and +3.9 g and +5.6 g | 29.1 and 27.0 and 27.7 and 27.9 and 26.7 and 30.2 and 24.5 and 27.6 and 26.6 and 26.3

Reference: US5010059A, “Pharmaceutical products and lactosyl compounds” (Solco Basel AG, priority 1987, dated 1991)
